Source: US20120083522A1, “MODULATION OF INFLAMMATORY RESPONSES BY FACTOR XI” (Isis Pharmaceuitcals, inc., priority 2009, published 2012)
In the oligonucleotide strings, read from the 5' end, every base follows the letter of its sugar. An asterisk marks phosphorothioate; unmarked linkages are phosphodiester. Other units and linkages are bracketed, terminal groups are in braces. A string of capitals states the bases alone. e = 2'-O-(2-methoxyethyl) (MOE); [5mC] = 5-methylcytosine; d = 2'-deoxy (DNA)

Key:
[1] = system: mouse Factor XI mRNA; experiment: Cross-reactive antisense inhibition in primary mouse hepatocytes, 100 nM (Example 9); format: cell-based; details: approx. 24 h, percent inhibition relative to untreated control cells
Experimental: Antisense oligonucleotides targeted to a murine Factor XI nucleic acid were tested for their effects on Factor XI mRNA in vitro. Cultured primary mouse hepatocytes at a density of 10,000 cells per well were treated with 100 nM antisense oligonucleotide. After a treatment period of approximately 24 hours, RNA was isolated from the cells and mouse Factor XI mRNA levels were measured by quantitative real-time PCR. Factor XI mRNA levels were adjusted according to total RNA content, as measured by RIBOGREEN®. Results are presented as percent inhibition of Factor XI, relative to untreated control cells.
The chimeric antisense oligonucleotides in Tables 16 were designed as 5-10-5 MOE gapmers. The gapmers are 20 nucleotides in length, wherein the central gap segment is comprised of 10 2′-deoxynucleotides and is flanked on both sides (in the 5′ and 3′ directions) by wings comprising 5 nucleotides each. Each nucleotide in the 5′ wing segment and each nucleotide in the 3′ wing segment has a 2′-MOE modification. The internucleoside linkages throughout each gapmer are phosphorothioate (P═S) linkages. All cytidine residues throughout each gapmer are 5-methylcytidines. “Mouse target start site” indicates the 5′-most nucleotide to which the gapmer is targeted. “Mouse target stop site” indicates the 3′-most nucleotide to which the gapmer is targeted. All the mouse oligonucleotides listed show cross-reactivity between the mouse Factor XI mRNA (GENBANK Accession No. NM_028066.1), incorporated herein as SEQ ID NO: 6 and the human Factor XI mRNA (GENBANK Accession No. NM_000128.3), incorporated herein as SEQ ID NO: 1. “Human Target Start Site” indicates the 5′-most nucleotide in the human mRNA (GENBANK Accession No. NM_000128.3) to which the antisense oligonucleotide is targeted. “Human Target Stop Site” indicates the 3′-most nucleotide in the human mRNA (GENBANK Accession No. NM_000128.3) to which the antisense oligonucleotide is targeted. “Number of mismatches” indicates the mismatches between the mouse oligonucleotide and the human mRNA sequence.

[2] = Tolerability in Sprague-Dawley rats: hematology assays (Example 23); format: in vivo; set-up: RBC / WBC / Neutrophil / Lymphocyte / Platelets: unit not given here; details: blood
[3] = Tolerability in Sprague-Dawley rats: body and organ weights (Example 23); format: in vivo; details: 50 mg/kg s.c. twice per week for 6 weeks; for Body weight: increase over PBS control weight before start of treatment; for Kidney weight / Liver weight / Spleen weight: percentage of the body weight
[4] = Tolerability in CD1 mice: hematology assays (Example 21); format: in vivo; details: 50 mg/kg s.c. twice per week for 6 weeks
[5] = Tolerability in CD1 mice: liver function (Example 21); format: in vivo; set-up: Albumin: unit not given here; details: plasma, 50 mg/kg s.c. twice per week for 6 weeks
[6] = Tolerability in Sprague-Dawley rats: kidney function (Example 23); format: in vivo; details: for BUN: plasma; for Total urine protein / Urine protein/creatinine ratio: total urine samples
[7] = Tolerability in CD1 mice: body and organ weights (Example 21); format: in vivo; details: 50 mg/kg s.c. twice per week for 6 weeks; for Body weight: increase over PBS control weight before start of treatment; for Kidney weight / Liver weight / Spleen weight: percentage of the body weight
Experimental: Body weight was measured at the onset of the study and subsequently twice per week. The body weights of the mice are presented in Table 87 and are expressed increase in grams over the PBS control weight taken before the start of treatment. Liver, spleen, and kidney weights were measured at the end of the study, and are also presented in Table 87 as percentage of the body weight.

[8] = Tolerability in CD1 mice: kidney function (Example 21); format: in vivo; details: plasma, 50 mg/kg s.c. twice per week for 6 weeks
[9] = Tolerability in Sprague-Dawley rats: liver function (Example 23); format: in vivo; set-up: Albumin: unit not given here; details: plasma, 50 mg/kg s.c. twice per week for 6 weeks

| Substance | Inhibition of mouse Factor XI mRNA levels (column headed SEQ ID No.) [1] | HCT [2] [%] | Hemoglobin [2] [g/dL] | Lymphocyte [2] | Neutrophil [2] | Platelets [2] | RBC [2] | WBC [2] | Body weight [3] [g] | Kidney weight [3] [%] | Liver weight [3] [%] | Spleen weight [3] [%] | HCT [4] [%] | Hemoglobin [4] [g/dL] | Lymphocyte [4] [cells/μL] | Monocytes [4] [cells/μL] | Neutrophil [4] [cells/μL] | Platelets [4] | RBC [4] | WBC [4] | other results |
| --- | --- | --- | --- | --- | --- | --- | --- | --- | --- | --- | --- | --- | --- | --- | --- | --- | --- | --- | --- | --- | --- |
| 404050 (antisense eT*eG*e[5mC]*eT*eT*dG*dA*dA*dG*dG*dA*dA*dT*dA*dT*e[5mC]*e[5mC]*eA*eG*eA) [compound 404050] | 82 |  |  |  |  |  |  |  |  |  |  |  |  |  |  |  |  |  |  |  |  |
| 404054 (antisense eT*eA*eG*eT*eT*d[5mC]*dA*dT*dG*d[5mC]*d[5mC]*d[5mC]*dT*dT*d[5mC]*eA*eT*eG*eT*e[5mC]) [compound 404054] | 45 |  |  |  |  |  |  |  |  |  |  |  |  |  |  |  |  |  |  |  |  |
| 404055 (antisense eT*eG*eT*eT*eA*dT*dA*dG*dT*dT*d[5mC]*dA*dT*dG*d[5mC]*e[5mC]*e[5mC]*eT*eT*e[5mC]) [compound 404055] | 27 |  |  |  |  |  |  |  |  |  |  |  |  |  |  |  |  |  |  |  |  |
| 404066 (antisense eA*eA*eT*eG*eT*d[5mC]*d[5mC]*d[5mC]*dT*dG*dA*dT*dA*d[5mC]*dA*eA*eG*e[5mC]*e[5mC]*eA) [compound 404066] | 37 |  |  |  |  |  |  |  |  |  |  |  |  |  |  |  |  |  |  |  |  |
| 404067 (antisense eG*eG*eG*eA*eA*dA*dA*dT*dG*dT*d[5mC]*d[5mC]*d[5mC]*dT*dG*eA*eT*eA*e[5mC]*eA) [compound 404067] | 39 |  |  |  |  |  |  |  |  |  |  |  |  |  |  |  |  |  |  |  |  |
| 404083 (antisense eT*eG*eT*eG*e[5mC]*dA*dG*dA*dG*dT*d[5mC]*dA*d[5mC]*d[5mC]*dT*eG*e[5mC]*e[5mC]*eA*eT) [compound 404083] | 47 |  |  |  |  |  |  |  |  |  |  |  |  |  |  |  |  |  |  |  |  |
| 404087 (antisense eT*eT*e[5mC]*eT*eT*dG*dA*dA*d[5mC]*d[5mC]*d[5mC]*dT*dG*dA*dA*eG*eA*eA*eA*eG) [compound 404087] | 29 |  |  |  |  |  |  |  |  |  |  |  |  |  |  |  |  |  |  |  |  |
| 404089 (antisense eT*eG*eA*eA*eT*dT*dA*dT*d[5mC]*dA*dT*dT*dT*d[5mC]*dT*eT*eG*eA*eA*e[5mC]) [compound 404089] | 6 |  |  |  |  |  |  |  |  |  |  |  |  |  |  |  |  |  |  |  |  |
| 404090 (antisense eT*eG*eA*eT*e[5mC]*dA*dT*dG*dA*dA*dT*dT*dA*dT*d[5mC]*eA*eT*eT*eT*e[5mC]) [compound 404090] | 42 |  |  |  |  |  |  |  |  |  |  |  |  |  |  |  |  |  |  |  |  |
| ACAGTTTCTGGCAGGCCTCG (antisense; all C 5-methyl, all phosphorothioate, sugars by position not given here; MOE gapmer, 5-10-5) [ISIS 412223, 5-10-5 MOE gapmer] |  | 41 | 13.1 | 16990 | 1826 | 567 | 7.2 | 20 | 126 | 1.0 | 5 | 0.5 | 48 | 15 | 4599 | 200 | 1756 | 862 10^3/μL | 9 10^6/μL | 7 10^3/μL | ALT [5]: 60 IU/L; AST [5]: 125 IU/L; Albumin [5]: 3.0; Bilirubin [5]: 0.20 mg/dL; Cholesterol [5]: 117 mg/dL; creatinine [6]: 46 mg/dL; BUN [6]: 24 mg/dL; Total urine protein [6]: 224 mg/dL; Urine protein/creatinine ratio [6]: 4.6; Body weight [7]: 12 g; Kidney weight [7]: 1.5%; Liver weight [7]: 6%; Spleen weight [7]: 0.4%; BUN [8]: 28 mg/dL; ALT [9]: 85 IU/L; AST [9]: 180 IU/L; Albumin [9]: 5; Bilirubin [9]: 0.14 mg/dL |
| GCAGCGGACGGCATTGGTGC (antisense; all C 5-methyl, all phosphorothioate, sugars by position not given here; MOE gapmer, 5-10-5) [ISIS 412225, 5-10-5 MOE gapmer] |  | 42 | 13.4 | 13204 | 1499 | 673 | 7.4 | 15 | 184 | 1.0 | 4 | 0.5 | 50 | 15 | 4969 | 293 | 1547 | 574 10^3/μL | 9 10^6/μL | 7 10^3/μL | ALT [5]: 40 IU/L; AST [5]: 69 IU/L; Albumin [5]: 3.3; Bilirubin [5]: 0.23 mg/dL; Cholesterol [5]: 128 mg/dL; creatinine [6]: 58 mg/dL; BUN [6]: 23 mg/dL; Total urine protein [6]: 209 mg/dL; Urine protein/creatinine ratio [6]: 4.0; Body weight [7]: 10 g; Kidney weight [7]: 1.5%; Liver weight [7]: 6%; Spleen weight [7]: 0.4%; BUN [8]: 23 mg/dL; ALT [9]: 48 IU/L; AST [9]: 108 IU/L; Albumin [9]: 5; Bilirubin [9]: 0.15 mg/dL |
| GCATTGGTGCACAGTTTCTG (antisense; all C 5-methyl, all phosphorothioate, sugars by position not given here; MOE gapmer, 5-10-5) [ISIS 412224, 5-10-5 MOE gapmer] |  | 42 | 13.4 | 16807 | 1865 | 685 | 7.4 | 20 | 165 | 1.0 | 5 | 0.5 | 50 | 15 | 6284 | 195 | 2107 | 647 10^3/μL | 10 10^6/μL | 9 10^3/μL | ALT [5]: 214 IU/L; AST [5]: 183 IU/L; Albumin [5]: 3.4; Bilirubin [5]: 0.19 mg/dL; Cholesterol [5]: 114 mg/dL; creatinine [6]: 44 mg/dL; BUN [6]: 24 mg/dL; Total urine protein [6]: 171 mg/dL; Urine protein/creatinine ratio [6]: 3.8; Body weight [7]: 10 g; Kidney weight [7]: 1.6%; Liver weight [7]: 6%; Spleen weight [7]: 0.5%; BUN [8]: 29 mg/dL; ALT [9]: 84 IU/L; AST [9]: 132 IU/L; Albumin [9]: 4; Bilirubin [9]: 0.12 mg/dL |
| GGACGGCATTGGTGCACAGT (antisense; all C 5-methyl, all phosphorothioate, sugars by position not given here; MOE gapmer, 5-10-5) [ISIS 413482, 5-10-5 MOE gapmer] |  | 40 | 13.2 | 11430 | 1125 | 641 | 7.1 | 13 | 158 | 1.0 | 5 | 0.6 | 50 | 15 | 5584 | 275 | 1958 | 818 10^3/μL | 10 10^6/μL | 8 10^3/μL | ALT [5]: 54 IU/L; AST [5]: 77 IU/L; Albumin [5]: 3.0; Bilirubin [5]: 0.24 mg/dL; Cholesterol [5]: 138 mg/dL; creatinine [6]: 34 mg/dL; BUN [6]: 23 mg/dL; Total urine protein [6]: 157 mg/dL; Urine protein/creatinine ratio [6]: 4.8; Body weight [7]: 11 g; Kidney weight [7]: 1.6%; Liver weight [7]: 6%; Spleen weight [7]: 0.5%; BUN [8]: 27 mg/dL; ALT [9]: 59 IU/L; AST [9]: 157 IU/L; Albumin [9]: 4; Bilirubin [9]: 0.14 mg/dL |
